Measured values from patent US20170362283A1, “NISIN-BASED COMPOUNDS AND USE THEREOF IN THE TREATMENT OF BACTERIAL INFECTIONS” (UNIVERSITEIT UTRECHT HOLDING B.V., priority 2015, published 2017).
≈ marks a conversion by molar mass, not a printed value. Like-named read-outs stand apart in the source and are kept apart here.

Assays:
VRE 155 = type: cell-based; details: duplicate experiments
Summary of the method: (§1)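 Broth dilution MIC following CLSI M07-A9; overnight TSB cultures diluted to 0.5×10^6 CFU in TSB and incubated with compound at 37° C for 16 hours. MIC read by visual inspection of growth.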

M. luteus = type: cell-based; details: duplicate experiments
Summary of the method: as §1

MRSA USA300 = type: cell-based, Staphylococcus aureus; details: duplicate experiments
Summary of the method: as §1

MRSA WKZ2 = type: cell-based, Staphylococcus aureus; details: duplicate experiments
Summary of the method: as §1

Serum stability = type: in vitro ADME; details: human serum, 37° C., after 24 hours; read-out: stability in human serum, remained intact
Experimental: 2 mg/mL peptide solutions were prepared in 26% DMSO in MilliQ. Duplicate samples were prepared with […] peptide solution and […] human serum, making the final DMSO concentration 2%. The samples were incubated at 37° C., and samples were taken at t=0, 1, 2, 4 and 24 hours as follows: to 100 μL serum solution, 200 μL MeOH (containing 0.075 mg/mL ethylparaben as an internal standard) was added to precipitate the proteins. The sample was vortexed briefly and allowed to stand for 10 min at RT. The samples were then centrifuged at 13,000 rpm for 5 min, and the supernatant was taken and stored at −20° C. until analysis. Each sample was analyzed by HPLC on a C4 column. The peaks were integrated and normalized to the internal standard.

E. coli = details: duplicate experiments
B. subtilis = details: duplicate experiments
S. aureus = details: duplicate experiments
erythrocytes = test: Hemolysis assay; details: human erythrocytes, 1 h
Experimental: Human whole blood was centrifuged at 600×g for 15 min and levels of plasma and hematocrit were marked on the tube. Plasma was removed and the erythrocytes washed 3× with PBS (centrifuging at 600×g for 15 mins). After discarding the supernatant, the packed cells were stored on ice. 100 μL of the peptides (128 μg/mL in PBS, 2% DMSO) as well as a control solution comprised of 2% DMSO in PBS were added to the top row of a polypropylene, round-bottom 96 well plate and 50 μL of PBS to the rest of the wells. The peptides and the DMSO control solutions were then diluted serially down the rows. 200 μL of the packed cells were added to PBS (10 mL) and 50 μL of this suspension was added to each well. A column with DI water containing 0.1% Triton X-100 was used as the 100% lysis control, and the column containing the serially-diluted PBS (1.0% DMSO) control served as the 0% lysis reference. The cells were incubated at 37° C. for 1 h. After incubation the plates were centrifuged (800×g, 5 min) and 25 μL of the supernatant was added to 100 μL DI water in a flat-bottom plate (polystyrene). The absorption at 414 nm was recorded to measure the amount of free hemoglobin.

C=C1NC(=O)[C@H]([C@@H](C)CC)NC(=O)[C@H](NC(=O)C(=CC)NC(=O)[C@@H](N)[C@@H](C)CC)CSC[C@@H](C(=O)N[C@H]2C(=O)N3CCC[C@H]3C(=O)NCC(=O)N[C@H](C(=O)N[C@@H](CCCCN)C(=O)NCCCCCCCCCCCCCC)CS[C@H]2C)NC(=O)[C@H](CC(C)C)NC1=O [(10)]
MIC (thirty VRE strains; VRE strain E0013, GBR, vanA): 4 µg/mL (≈ 2.97 µM)
MIC (thirty VRE strains; VRE strain E0072, NLD, vanA): 2 µg/mL (≈ 1.49 µM)
MIC (thirty VRE strains; VRE strain E0300, USA, vanA): 8 to 16 µg/mL
MIC (thirty VRE strains; VRE strain E0321, FRA, vanA): 2 µg/mL (≈ 1.49 µM)
MIC (thirty VRE strains; VRE strain E0333, ISR, vanA): 4 µg/mL (≈ 2.97 µM)
MIC (thirty VRE strains; VRE strain E0338, ITA, vanA): 4 µg/mL (≈ 2.97 µM)
MIC (thirty VRE strains; VRE strain E0341, GBR, vanA): 4 µg/mL (≈ 2.97 µM)
MIC (thirty VRE strains; VRE strain E0506, AUS, vanA): 8 µg/mL (≈ 5.94 µM)
MIC (thirty VRE strains; VRE strain E0745, NLD, vanA): 4 µg/mL (≈ 2.97 µM)
MIC (thirty VRE strains; VRE strain E1130, USA, vanA): 4 µg/mL (≈ 2.97 µM)
MIC (thirty VRE strains; VRE strain E1441, GRC, vanA): 4 µg/mL (≈ 2.97 µM)
MIC (thirty VRE strains; VRE strain E1679, BRA, vanA): 4 µg/mL (≈ 2.97 µM)
MIC (thirty VRE strains; VRE strain E1763, BEL, vanA): 8 µg/mL (≈ 5.94 µM)
MIC (thirty VRE strains; VRE strain E2297, USA, vanA): 2 µg/mL (≈ 1.49 µM)
MIC (thirty VRE strains; VRE strain E2359, SGP, vanB): 2 µg/mL (≈ 1.49 µM)
MIC (thirty VRE strains; VRE strain E2365, HUN, vanB): 1 µg/mL (≈ 0.743 µM)
MIC (thirty VRE strains; VRE strain E2373, SRB, vanA): 4 µg/mL (≈ 2.97 µM)
MIC (thirty VRE strains; VRE strain E6016, LVA, vanA): 2 to 4 µg/mL
MIC (thirty VRE strains; VRE strain E7312, NLD, vanA): 2 µg/mL (≈ 1.49 µM)
MIC (thirty VRE strains; VRE strain E7314, NLD, vanB): 4 µg/mL (≈ 2.97 µM)
MIC (thirty VRE strains; VRE strain E7319, NLD, vanA): 2 µg/mL (≈ 1.49 µM)
MIC (thirty VRE strains; VRE strain E7329, NLD, vanA): 2 µg/mL (≈ 1.49 µM)
MIC (thirty VRE strains; VRE strain E7401, NLD, vanB): 4 µg/mL (≈ 2.97 µM)
MIC (thirty VRE strains; VRE strain E7403, NLD, vanB): 1 µg/mL (≈ 0.743 µM)
MIC (thirty VRE strains; VRE strain E7413, NLD, vanA): 4 µg/mL (≈ 2.97 µM)
MIC (thirty VRE strains; VRE strain E7424, NLD, vanB): 1 to 2 µg/mL
MIC (thirty VRE strains; VRE strain E7464, NLD, vanB): 4 µg/mL (≈ 2.97 µM)
MIC (thirty VRE strains; VRE strain E8218, NLD, vanB): 2 µg/mL (≈ 1.49 µM)
MIC (thirty VRE strains; VRE strain E8235, NLD, vanB): 4 µg/mL (≈ 2.97 µM)
MIC (thirty VRE strains; VRE strain E8237, NLD, vanA): 8 µg/mL (≈ 5.94 µM)
MIC values VRE 155 (VRE 155): 4 µg/mL (≈ 2.97 µM)
MIC values M. luteus (M. luteus): 1 to 2 µg/mL
MIC values MRSA USA300 (MRSA USA300): 64 µg/mL (≈ 47.6 µM)
MIC values MRSA WKZ2 (MRSA WKZ2): 32 µg/mL (≈ 23.8 µM)
remaining at 24 h, 0.15 mg/mL (Serum stability): > 50%
MIC values E. coli (E. coli): >64 µg/mL
MIC values B. subtilis (B. subtilis): 4 µg/mL (≈ 2.97 µM)
MIC values S. aureus (S. aureus): 16 µg/mL (≈ 11.9 µM)

C=C1NC(=O)[C@H]([C@@H](C)CC)NC(=O)[C@H](NC(=O)C(=CC)NC(=O)[C@@H](N)[C@@H](C)CC)CSC[C@@H](C(=O)N[C@H]2C(=O)N3CCC[C@H]3C(=O)NCC(=O)N[C@H](C(=O)N[C@@H](CCCCNC(C)=O)C(=O)NCCCCCCCCCCCC)CS[C@H]2C)NC(=O)[C@H](CC(C)C)NC1=O [Compound (20)]
MIC values VRE 155 (VRE 155): 4 µg/mL (≈ 2.94 µM)
MIC values MRSA USA300 (MRSA USA300): >64 µg/mL
hemolysis (erythrocytes; up to the highest concentration tested (64 μg/mL)): no detectable hemolysis

vancomycin
MIC (thirty VRE strains; VRE strain E0013, GBR, vanA): 32 µg/mL
MIC (thirty VRE strains; VRE strain E0072, NLD, vanA): 8 µg/mL
MIC (thirty VRE strains; VRE strain E0300, USA, vanA): >128 µg/mL
MIC (thirty VRE strains; VRE strain E0321, FRA, vanA): >128 µg/mL
MIC (thirty VRE strains; VRE strain E0333, ISR, vanA): >128 µg/mL
MIC (thirty VRE strains; VRE strain E0338, ITA, vanA): >128 µg/mL
MIC (thirty VRE strains; VRE strain E0341, GBR, vanA): 128 µg/mL
MIC (thirty VRE strains; VRE strain E0506, AUS, vanA): >128 µg/mL
MIC (thirty VRE strains; VRE strain E0745, NLD, vanA): 64 µg/mL
MIC (thirty VRE strains; VRE strain E1130, USA, vanA): >128 µg/mL
MIC (thirty VRE strains; VRE strain E1441, GRC, vanA): 128 µg/mL
MIC (thirty VRE strains; VRE strain E1679, BRA, vanA): >128 µg/mL
MIC (thirty VRE strains; VRE strain E1763, BEL, vanA): >128 µg/mL
MIC (thirty VRE strains; VRE strain E2297, USA, vanA): 128 µg/mL
MIC (thirty VRE strains; VRE strain E2359, SGP, vanB): <1-1 μg/mL
MIC (thirty VRE strains; VRE strain E2365, HUN, vanB): <1 µg/mL
MIC (thirty VRE strains; VRE strain E2373, SRB, vanA): >128 µg/mL
MIC (thirty VRE strains; VRE strain E6016, LVA, vanA): 128 µg/mL
MIC (thirty VRE strains; VRE strain E7312, NLD, vanA): 64 µg/mL
MIC (thirty VRE strains; VRE strain E7314, NLD, vanB): >128 µg/mL
MIC (thirty VRE strains; VRE strain E7319, NLD, vanA): >128 µg/mL
MIC (thirty VRE strains; VRE strain E7329, NLD, vanA): <1 µg/mL
MIC (thirty VRE strains; VRE strain E7401, NLD, vanB): 16 µg/mL
MIC (thirty VRE strains; VRE strain E7403, NLD, vanB): <1 µg/mL
MIC (thirty VRE strains; VRE strain E7413, NLD, vanA): >128 µg/mL
MIC (thirty VRE strains; VRE strain E7424, NLD, vanB): >128 µg/mL
MIC (thirty VRE strains; VRE strain E7464, NLD, vanB): 2 µg/mL
MIC (thirty VRE strains; VRE strain E8218, NLD, vanB): 8 µg/mL
MIC (thirty VRE strains; VRE strain E8235, NLD, vanB): 8 µg/mL
MIC (thirty VRE strains; VRE strain E8237, NLD, vanA): 128 µg/mL
MIC50 (thirty VRE strains; thirty VRE strains): MIC50 = 128 μg/mL
MIC90 (thirty VRE strains; thirty VRE strains): MIC90 = >128 μg/mL
MIC values VRE 155 (VRE 155): >10 µg/mL
MIC values M. luteus (M. luteus): 0.03 µg/mL
MIC values MRSA USA300 (MRSA USA300): 0.625 µg/mL
MIC values MRSA WKZ2 (MRSA WKZ2): 0.625 µg/mL
hemolysis (erythrocytes; at 32 μg/mL): negligible hemolysis
MIC values E. coli (E. coli): >10 µg/mL
MIC values B. subtilis (B. subtilis): 0.03 to 0.06 µg/mL
MIC values S. aureus (S. aureus): 0.25 to 0.31 µg/mL
